Laboratory results: patent US20220326218A1, “COMPOSITION AND METHOD FOR INHIBITING BORC COMPLEX TO TREAT CANCERS WITH NF1 DEFICIENCY AND DYSREGULATED RAS SIGNALING” (THE TRUSTEES OF DARTMOUTH COLLEGE, priority 2019, published 2022)

Test system: lysosomes
Assay: Immunofluorescence staining of lysosomes (LAMP1) and mitochondria (Tom20)
Assay type: cell-based, human
Details: U87-MG, 2 μM, 16 h
Procedure: U87-MG cells were plated at a concentration of 50,000 cells/well onto precoated poly-D-lysine (PDL) coverslips (Neuvitro) in 24-well plates (Falcon) and allowed to adhere overnight. Medium was removed and replaced with treatment-laced media normalized to DMSO, and cells were treated for the indicated timepoints. At the time of collection, cells were washed with PBS and fixed with 4% paraformaldehyde without methanol (EMS) or 100% methanol (Fischer). Coverslips were washed with Tween20-containing PBS (PBST; Fischer). Following permeabilization with 0.5% Triton X-100 in PBS (Fischer), coverslips were blocked for 1 h at room temperature in IF Buffer (0.05% azide, 0.2% Triton X-100, 2% Normal Goat Serum or, for 8-OHG, Normal Donkey Serum). The following primary antibodies were used for 1 hour at room temperature unless specified: AlexaFluor 488 pre-conjugated anti-γ-H2AX (N1-431) mouse monoclonal (30 minutes; BD Biosciences), anti-cleaved caspase 3 (Asp175) rabbit polyclonal (Cell Signaling), anti-SQSTM1/p62 (D-3) mouse monoclonal (Santa Cruz), anti-8-Hydroxyguanosine goat polyclonal (1:200; Millipore), anti-LAMP1 (D4O1S) mouse monoclonal (O/N at 4° C.; Cell Signaling), anti-BNIP3L/Nix (D4R4B) rabbit monoclonal (O/N at 4° C.; Cell Signaling), anti-FLAG (M2) mouse monoclonal (2 hours at 37° C.; Sigma-Aldrich). Following washes with PBST, cells were stained with goat anti-rabbit or goat anti-mouse AlexaFluor 488 or AlexaFluor 594 (or, for 8-OHG, donkey anti-goat AlexaFluor 488) secondary antibody at 1:800 for 1 hour at room temperature (Jackson ImmunoResearch). […]
All confocal images were acquired on a Nikon AIRSi confocal microscope equipped with a 60× 1.4 NA oil objective, a DU4 detector unit, and Nikon Elements software. Otherwise, images were acquired on a Zeiss Axio Imager.Z1 equipped with a Zeiss EC Plan-NEOFLUAR 40× 1.3 NA oil objective, a Zeiss AxioCam MRm camera, a Lumen Dynamics Series 120 Q X-Cite Fluorescence Illuminator, and AxioVision SE64 Rel. […]

In the case of Cn1cnnc1S/C=C/C(=O)c1ccc(F)cc1 [Y102], the localization of lysosomes (LAMP1) is reported as “perinuclear region”, the lysosome expression (LAMP1) is reported as “increase” and the “colocalization between lysosomes and mitochondria” value (LAMP1/Tom20, ratiometric analysis, confocal) is reported as “observed”.
